In the case of `O=[N+]([O-])c1cccnc1Cl`, the melting point is reported as 101 °C.

Molecule `Cc1onc(-c2c(Cl)cccc2Cl)c1C(=O)Cl` has a melting point of 92 to 95 °C.

With `Nc1c(Br)cc(C(F)(F)F)cc1[N+](=O)[O-]` the melting point was 71 °C.

For `O=C1c2ccc([N+](=O)[O-])cc2C(=O)N1CCCBr`, the melting point was 104 to 107 °C.

With `NC(=S)NCCCN1CCOCC1` the melting point was 129 to 131 °C.

In the case of `Cc1cc(O)cc(C)c1Br`, the melting point is reported as 115 °C.

`Nc1ccc(C(F)(F)F)cc1Br` showed a melting point of 29.5 °C.

With `CC(C)NCC(O)c1ccc(NS(C)(=O)=O)cc1` (stereo not drawn) the melting point was 207 °C.

In the case of `COc1cc(F)c(Br)cc1F`, the melting point is reported as 63 °C.

For `Cc1ccccc1NC(=O)c1ccccc1`, the melting point was 146 °C.

`COc1ccc(F)c(O)c1F` gave a melting point of 75 °C.

`O=C1/C(=C\c2ccc(Cl)cc2)SC(=S)N1CN1CCCCC1` gave a melting point of 122 °C.

Molecule `N#Cc1ccc(C(F)(F)F)c(F)c1` has a melting point of 47 °C.

Molecule `Nc1ccc(C(F)(F)F)cc1N` has a melting point of 56 to 58 °C.

`CCCOc1ccc2[nH]c(NC(=O)OC)nc2c1` gave a melting point of 230 °C.

In the case of `COc1ccc(C(C)=O)cc1F`, the melting point is reported as 92 °C.

`COc1ccccc1OCCNCC(O)COc1cccc2[nH]c3ccccc3c12` (stereo not drawn) gave a melting point of 114 °C.

`Cc1nc(-c2cc(C(=O)O)no2)cs1` gave a melting point of 166 to 167 °C.

In the case of `N=C(N)NC(=N)NCCc1ccccc1`, the melting point is reported as 176 °C.

In the case of `CNC(=O)Oc1cccc(C(C)C)c1`, the melting point is reported as 73 °C.

Work on `CCN(CC)CCOc1ccc(C(O)(Cc2ccc(Cl)cc2)c2ccc(C)cc2)cc1` (stereo not drawn) yielded a melting point of 103 °C.

`O=C(O)C=Cc1ccccc1Br` showed a melting point of 215 to 216 °C.

In the case of `CC(=O)NC(C(=O)O)c1ccccc1` (stereo not drawn), the melting point is reported as 197 to 201 °C.

`COC(=O)c1sccc1Br` gave a melting point of 50 to 51 °C.

Molecule `CC(=O)O[C@H]1[C@H](OC(C)=O)[C@@H](S(=O)(=O)c2ccccc2)OC[C@H]1OC(C)=O` has a melting point of 145 to 148 °C.

Work on `C[C@@]12CCC[C@@H]1C1=C(CC2)[C@@]2(C)CCC(=O)CC2CC1` (stereo partly drawn) yielded a melting point of 77 to 78 °C.

`COc1ccc2c(c1)C(=O)C2` gave a melting point of 55 °C.

Molecule `Cn1c(=O)c(C2=NNC(=O)C2=NNc2ncccn2)c(O)c2ccccc21` has a melting point of 302 °C.

For `N#Cc1ccc(F)cc1Br`, the melting point was 76 °C.

For `S=C=Nc1ccccc1N=C=S`, the melting point was 56 to 58 °C.

Work on `FC(F)C(F)(F)F` yielded a melting point of -103 °C.

With `N#Cc1cc(F)c(F)cc1Cl` the melting point was 35 °C.

`O=c1cc(-c2ccccc2)oc2cccc(O)c12` gave a melting point of 158 °C.

With `O=S1(=O)c2ccccc2-c2ccccc21` the melting point was 231 to 236 °C.

`COC(=O)[C@H]1C[C@H](NC(=O)OC(C)(C)C)[C@@H](O)C1` showed a melting point of 71.2 °C.

For `CCCCCCCCCCOc1ccc(C(C)=O)cc1OCCCCCCCCCC`, the melting point was 61 to 65 °C.

`Oc1cccnc1Br` showed a melting point of 185 to 188 °C.

With `COC(=O)c1ccc(O)c(O)c1` the melting point was 136 °C.

With `O=C1C=CCN1[C@@H](CO)c1ccccc1` the melting point was 103 °C.

`O=C(O)C=Cc1ccc(Sc2ccccn2)c([N+](=O)[O-])c1` showed a melting point of 177 to 178 °C.

In the case of `O=C(O)/C=C/c1ccc(C(F)(F)F)cc1`, the melting point is reported as 230 to 234 °C.

In the case of `CC12C=C(C=O)C(=O)C=C1CCC1C2C(O)CC2(C)C1CCC2(C)O` (stereo not drawn), the melting point is reported as 210 °C.

For `CC(=O)c1ccc(NC(=O)C(C(F)(F)F)(C(F)(F)F)C(F)(F)F)cc1`, the melting point was 223 to 225 °C.

Work on `CC(C)(C)OC(=O)N1CCN(c2ccc(CO)cn2)CC1` yielded a melting point of 112 to 115 °C.

With `c1ccc(Sc2ccc3ccccc3n2)cc1` the melting point was 48 °C.

For `BrCC(Br)c1cccc(C(Br)CBr)c1` (stereo not drawn), the melting point was 65 °C.

For `CNC(N)=O`, the melting point was 103 °C.

`CS(=O)(=O)c1ccc(C(=O)C2C(=O)CCCC2=O)c(Cl)c1` gave a melting point of 139 °C.

Work on `Cc1c(N/N=C(/C#N)c2nc(-c3ccccc3)cs2)c(=O)n(-c2ccccc2)n1C` yielded a melting point of 226 °C.

`O=C(OC1OC(COCc2ccccc2)C(OCc2ccccc2)C1OCc1ccccc1)c1ccc([N+](=O)[O-])cc1` (stereo not drawn) showed a melting point of 92 to 94 °C.

`CC(C)NCC(O)c1ccc([N+](=O)[O-])cc1` (stereo not drawn) gave a melting point of 98 °C.

With `Cc1cc(C(=O)O)c(C)n1C` the melting point was 150 °C.

`C/C(=N\c1ccccc1O)c1c(O)c2ccccc2n(-c2ccccc2)c1=O` gave a melting point of 268 to 269 °C.

`CC1CC2(C)C(CCC3C4CCC(O)C4(C)CCC32)CC1=O` (stereo not drawn) showed a melting point of 151 °C.

In the case of `O=C1OC(c2ccc(O)c3ccccc23)(c2ccc(O)c3ccccc23)c2ccccc21`, the melting point is reported as 254 °C.

`CC(Cc1cc(=O)c2c3c(c4ccccc4c2o1)OC1CC(=O)OC31)O[Si](C)(C)C(C)(C)C` (stereo not drawn) gave a melting point of 188 °C.

For `CC(=O)Oc1c(-c2ccccc2)[nH]c2ccccc12`, the melting point was 107 °C.

Molecule `Cn1c(=O)c2c(ncn2CCCl)n(C)c1=O` has a melting point of 122 to 127 °C.

In the case of `O=P(O)(OCc1ccccc1)OCc1ccccc1`, the melting point is reported as 80 °C.

With `NCCCCCN` the melting point was 9 °C.

In the case of `O=C1CCC(c2ccc(NC(=O)Nc3ccccc3)cc2)=NN1`, the melting point is reported as 335 to 338 °C.

`CC(=Cc1ccc(F)cc1)[N+](=O)[O-]` gave a melting point of 64 to 67 °C.

`O=[N+]([O-])c1ncc[nH]1` gave a melting point of 287 °C.

`CC(C)(C)OC(=O)C[C@H]1C[C@@H](CC#N)OC(C)(C)O1` gave a melting point of 65 to 70 °C.

In the case of `CCC1CCC(C)C1` (stereo not drawn), the melting point is reported as -108 °C.

In the case of `COc1cc(C2c3cc4c(cc3C(OC3OC5COC(c6cccs6)OC5C(O)C3O)C3COC(=O)C23)OCO4)cc(OC)c1O` (stereo not drawn), the melting point is reported as 244 °C.

For `COC(=O)c1ccc(C(=O)O)nc1`, the melting point was 187 to 190 °C.

`O=C(C=Cc1ccc(F)cc1)C=Cc1ccc(F)cc1` showed a melting point of 141 to 146 °C.

With `CCCCCCCCCCCCCCCCCC(N)=O` the melting point was 109 °C.

With `OCc1cccc(CN2CCCCC2)c1` the melting point was 67 to 69 °C.

With `O=C(O)C1CC2CCC1C2` (stereo not drawn) the melting point was 40 °C.

`Nc1ccc2cc[nH]c2c1` showed a melting point of 73 °C.

In the case of `CCCCCC(=O)OC`, the melting point is reported as -71 °C.

`COc1cc(C2Nn3c(nnc3-c3cccc([N+](=O)[O-])c3)S2)ccc1O` (stereo not drawn) gave a melting point of 165 °C.

`CCCCCC(=O)c1ccc(O)cc1O` showed a melting point of 57 °C.

With `COc1ccc(CCC(=O)O)cc1` the melting point was 104 °C.

With `Fc1ccc2c(c1)Cc1ccccc1-2` the melting point was 98 °C.

`Clc1ccc(C(c2ccccc2)N2CCNCC2)cc1` (stereo not drawn) showed a melting point of 65 to 75 °C.

Work on `C=CCNC(=O)C(O)C(O)C(=O)NCC=C` (stereo not drawn) yielded a melting point of 182 to 186 °C.

In the case of `CCOC(=O)C(C)Oc1ccc(Oc2nc3ccc(Cl)cc3o2)cc1` (stereo not drawn), the melting point is reported as 90 °C.

Work on `O=S(=O)(O)CCCN1CCN(CCO)CC1` yielded a melting point of 231 °C.

`NC(=O)c1cncc(Br)c1` gave a melting point of 226 °C.

Molecule `CCCCCCCc1ccccc1` has a melting point of -48 °C.

In the case of `CC(=O)OCC1OC(OC2OC=CC3C(OC(=O)c4ccc(OC(C)=O)cc4)C4OC4(COC(C)=O)C23)C(OC(C)=O)C(OC(C)=O)C1OC(C)=O` (stereo not drawn), the melting point is reported as 135 °C.

`Clc1ccc(C(Cl)(Cl)Cl)cc1Cl` gave a melting point of 25.8 °C.

With `CC(=O)Oc1ccc(C2(c3ccc(OC(C)=O)cc3)C(=O)Nc3ccccc32)cc1` the melting point was 242 °C.

Molecule `CC(O)C1(C)CCC2=C1CCC1C2CCC2(C)CC(O)CCC12C` (stereo not drawn) has a melting point of 205 to 207 °C.

In the case of `O=C=NS(=O)(=O)c1ccc(F)cc1`, the melting point is reported as 32 to 39 °C.

In the case of `Cn1ccnc1I`, the melting point is reported as 87 to 89 °C.

`Nc1nc(N)c2nc[nH]c2n1` showed a melting point of 302 °C.

In the case of `C=C1C(=O)C2(C)CCC1C2(C)C` (stereo not drawn), the melting point is reported as 45 °C.

`BrCCOc1ccccc1` showed a melting point of 39 °C.

`C1CCC(CCCCC2CCCCC2)CC1` showed a melting point of 12 °C.

With `CCOC(=O)Cn1c(Br)nc(Cl)c1Cl` the melting point was 42 to 45 °C.

Molecule `NNc1c(F)cc(F)cc1F` has a melting point of 99 °C.

`O=Cc1cc(Cl)cc(Cl)c1Cl` showed a melting point of 72 to 76 °C.

Work on `CCCC(C(N)=O)c1ccc(O)c(O)c1` (stereo not drawn) yielded a melting point of 133 to 135 °C.

`C(=NCCN=Cc1ccccc1)c1ccccc1` showed a melting point of 52 to 54 °C.

In the case of `COC(=O)C(c1ccccc1Cl)N1CCc2sccc2C1` (stereo not drawn), the melting point is reported as 158 °C.

`CCOC(=O)C=C(C)OCC` showed a melting point of 30 °C.

For `C/C(=N\O)c1ccc2c(c1)CCCC2`, the melting point was 104 to 106 °C.

In the case of `CCOC(=O)C(C#N)=NNc1ccccc1[N+](=O)[O-]`, the melting point is reported as 102 to 103 °C.

In the case of `COc1ccc(CNC(N)=S)cc1`, the melting point is reported as 135 to 137 °C.

`O=C(Nc1ccccc1/C=C/c1ccccc1)c1ccccc1` showed a melting point of 168 °C.

In the case of `COc1c(C)c2c(c(O)c1CC=C(C)CCC(=O)OCCN1CCOCC1)C(=O)OC2`, the melting point is reported as 93.5 °C.

For `CC(C)(C)OC(=O)N1CCN(CCC(=O)O)CC1`, the melting point was 138 to 139 °C.

Molecule `CC(=O)Nc1ccc(C=NNC(N)=S)cc1` has a melting point of 225 to 230 °C.

`O=C(C1=NOC2C(=O)N(c3ccc(Cl)cc3)C(=O)C12)c1ccc(Cl)cc1` (stereo not drawn) gave a melting point of 152 °C.

Work on `CC(C)CCCC(C)C1CCC2C3CCC4CCCCC4(C)C3CCC12C` (stereo not drawn) yielded a melting point of 79 to 80 °C.

With `CC#CCN1C(=O)c2ccccc2C1=O` the melting point was 221 °C.

Work on `NS(=O)(=O)c1cc(-c2nnn[nH]2)c(NCc2cccs2)cc1Cl` yielded a melting point of 220 °C.

`O=[N+]([O-])c1ccc2c(c1)OCCOCCOCCOCCO2` gave a melting point of 95 to 98 °C.

`CCCCCCCC[C@@H](O)CO` showed a melting point of 60 to 62 °C.

Molecule `COc1ccc(N)cc1C(F)(F)F` has a melting point of 59 °C.

`O=C(O)c1cccc2cccnc12` gave a melting point of 187 °C.

`O=C1OC(c2ccc(OP(=O)(O)O)cc2)(c2ccc(OP(=O)(O)O)cc2)c2ccccc21` gave a melting point of 198 °C.

`COc1ccccc1OCC(O)COC(N)=O` (stereo not drawn) showed a melting point of 93 °C.

`Cc1cc(S(=O)(=O)Cl)c(C)cc1Cl` showed a melting point of 49 °C.

Molecule `c1cc2c(cc1N1N=N1)OCO2` has a melting point of 129 °C.

In the case of `Oc1ccc(S)cc1`, the melting point is reported as 34 °C.

With `Cc1ccc(S(=O)(=O)c2coc(S(N)(=O)=O)c2)cc1` the melting point was 185 °C.

Molecule `CCCCCCCCCCCCCCCc1ccccc1` has a melting point of 22 °C.

For `O=C(C1CCNCC1)N1CCCC1`, the melting point was 45 to 47 °C.

`FC(F)(F)C(F)(F)C(F)(F)C(F)(F)C(F)(F)C(F)(F)C(F)(F)C(F)(F)C(F)(F)C(F)(F)I` showed a melting point of 66 °C.

Molecule `CC1OC1P(=O)(O)O` (stereo not drawn) has a melting point of 94 °C.

In the case of `CC(C)=C1C2CCC1c1ccccc12`, the melting point is reported as 90 °C.

Molecule `CCOP(=S)(OCC)Oc1cc(C)nc(N(CC)CC)n1` has a melting point of 15 °C.

Molecule `Nc1ncc(C(F)(F)F)cc1Br` has a melting point of 100 °C.

From a melting point compilation (Tetko et al.)
